The results in this text go back to publication PMC3088537, “Production, purification, sequencing and activity spectra of mutacins D-123.1 and F-59.1” (BMC Microbiology, 2011).

Holding throughout (assay): Inhibitory spectrum, critical dilution with spot test
Conditions in all cases: purified mutacin, 5 μL spotted on soft agar lawn on TSAYE; reciprocal of highest dilution showing inhibition zone

Experiment [1] concerns Enterococcus faecalis ATCC 27235. In kind it is cell-based. The protocol: (§1) Streptococcus mutans 59.1 and 123.1 produce mutacins F-59.1 and D-123.1 respectively. Micrococcus luteus ATCC 272 (ATCC, Manassas, VA, USA) was used as the indicator strain for the mutacin activity assays. All bacteria were routinely grown aerobically at 37°C in TSBYE made of TSB (Difco laboratories, Detroit, MI, USA) supplemented with 0.3% yeast extract (Becton Dickinson & Co., Cockeysville, MD, USA) or on TSAYE plates made of TSA (Difco) enriched with 0.3% yeast extract. Lactobacillus salivarius strain (provided by Sylvain Moineau, Université Laval, Québec, QC, Canada) was cultivated aerobically at 30°C in MRS medium (Oxoid, Nepean, ON, Canada). Other bacterial strains used for the inhibitory spectra determination are described in Mota-Meira et al. and Morency et al.. Staphylococcus carnosus was obtained from the strain collection of the Department of Microbiology, Biochemistry and Bioinformatics (Université Laval).
(§2) Mutacin activity was determined by the spot test using Micrococcus luteus ATCC 272 as sensitive strain where two-fold dilutions were prepared in acidified (pH 2) peptone water (0.5%). Antibacterial activity spectra of purified mutacins was tested against a panel of bacterial strains using the critical dilution method combined with the spot test method as described previously. Briefly, overnight cultures of test strains in TSBYE were diluted in fresh broth before inoculating 5 mL of soft agar (0.75%) in order to obtain confluent lawns of growth on TSAYE plates. Five μL of purified mutacins, diluted in acidified (10 mM HCl) distilled water to promote solubility of the peptides, were deposited on the lawn and allowed to dry before appropriate incubation. Mutacin activity was expressed in AU/mL and corresponds to the reciprocal of the highest dilution showing a noticeable inhibition zone on the lawn.

In experiment [2] the test system is Listeria monocytogenes ATCC 15313. Type of experiment: cell-based. How it is done:
as §1, §2

Experiment [3] relates to Streptococcus sobrinus ATCC 27352. Type of experiment: cell-based. How it is done: as §1, §2
The next experiment concerns Listeria ivanovii HPB 28. Type of experiment: cell-based. How it is done:
as §1, §2

Experiment [4] has as its system Pediococcus acidilactici UL5. In kind it is cell-based. How it is done:
as §1, §2

The test system of experiment [5] is Bacillus subtilis ATCC 6051. In kind it is cell-based. How it is done: as §1, §2
Experiment [6] concerns Enterococcus hirae ATCC 8043. In kind it is cell-based. The protocol: as §1, §2
In experiment [7] the test system is Streptococcus suis serotype 2. Type of experiment: cell-based. How it is done:
as §1, §2

A further experiment has as its system Staphylococcus carnosus. Type of experiment: cell-based. How it is done: as §1, §2
The test system of experiment [8] is Micrococcus luteus ATCC 272. In kind it is cell-based. How it is done:
as §1, §2

For experiment [9], the system named is Lactococcus lactis ATCC 11454. In kind it is cell-based. The protocol: as §1, §2
In experiment [10] the test system is Streptococcus pyogenes ATCC 10389. Type of experiment: cell-based. How it is done: as §1, §2
The test system of experiment [11] is Listeria grayi ATCC 19120. Type of experiment: cell-based. The protocol:
as §1, §2

For a further experiment, the system named is Bacillus cereus ATCC 2. Type of experiment: cell-based. How it is done: as §1, §2
In the next experiment the test system is S. aureus ATCC 43300. In kind it is cell-based, Staphylococcus aureus. The protocol: as §1, §2
A further experiment has as its system S. aureus R621. Type of experiment: cell-based, Staphylococcus aureus. The protocol:
as §1, §2

In a further experiment the test system is S. aureus ATCC 25923. In kind it is cell-based, Staphylococcus aureus. How it is done:
as §1, §2

The subject of another experiment is L. murrayi HPB 30. Type of experiment: cell-based, Listeria murrayi. The protocol: as §1
Mutacin activity was determined by the spot test using Micrococcus luteus ATCC 272 as sensitive strain where two-fold dilutions were prepared in acidified (pH 2) peptone water (0.5%). Antibacterial activity spectra of purified mutacins was tested against a panel of bacterial strains using the critical dilution method combined with the spot test method as described previously. […]

Marks after values point to notes of the source that are not given here. Bridge positions count the residues as written; N and C are the ends. Ends that are not written are not given here.

For the sequence “KYYGNGVTCGKHSCSVDWSKATTNI (disulfide 9-14 (inferred)) [mutacin F-59.1, pediocin-like (class IIa) bacteriocin of 25 amino acids produced by Streptococcus mutans 59.1; UniProt P86386]”, the “Activity of mutacin against Enterococcus faecalis ATCC 27235” value in [1] stood at 200 AU/mL. In addition, the “Activity of mutacin against Listeria monocytogenes ATCC 15313” value in experiment [2] was 200^b AU/mL. In addition, in experiment [3], the “Activity of mutacin against Streptococcus sobrinus ATCC 27352” value is listed as 800 AU/mL. Moreover, the “Activity of mutacin against Listeria ivanovii HPB 28” value with Listeria ivanovii HPB 28 is 200 AU/mL. Besides, the “Activity of mutacin against Pediococcus acidilactici UL5” value in experiment [4] is 800 AU/mL. For the same sequence, in experiment [5], the “Activity of mutacin against Bacillus subtilis ATCC 6051” value came to 400 AU/mL. For the same sequence, in experiment [6], the “Activity of mutacin against Enterococcus hirae ATCC 8043” value was 200 AU/mL. The “Activity of mutacin against Streptococcus suis serotype 2” value in [7] amounted to 0 AU/mL. The “Activity of mutacin against Staphylococcus carnosus” value in the experiment on Staphylococcus carnosus worked out at 800 AU/mL. In addition, the “Activity of mutacin against Micrococcus luteus ATCC 272” value in experiment [8] came out at 3200 AU/mL. Besides, the “Activity of mutacin against Lactococcus lactis ATCC 11454” value in [9] is 400 AU/mL. Also, the “Activity of mutacin against Streptococcus pyogenes ATCC 10389” value in experiment [10] was determined as 0 AU/mL. In addition, the “Activity of mutacin against Listeria grayi ATCC 19120” value in experiment [11] was 200 AU/mL. The “Activity of mutacin against Bacillus cereus ATCC 2” value with Bacillus cereus ATCC 2 is listed as 400 AU/mL. Also, in the experiment on S. aureus ATCC 43300, the “Activity of mutacin against S. aureus ATCC 43300” value amounted to 0 AU/mL. Further, in the experiment on S. aureus R621, the “Activity of mutacin against S. aureus R621” value came to 0 AU/mL. In the experiment with S. aureus ATCC 25923, the “Activity of mutacin against S. aureus ATCC 25923” value stood at 0 AU/mL. For the same sequence, in the experiment with L. murrayi HPB 30, the “Activity of mutacin against L. murrayi HPB 30” value is 200^b AU/mL.
